Data: patent publication US12527832B2, “Enriched Withania somnifera based dietary composition and a method thereof” (priority 2015, dated 2026)

Legend:
Albino Wistar rats = experiment: Anoxia stress tolerance (AST) test; assay type: in vivo, rat; details: p.o. daily
Protocol: Albino Wistar rats of either sex weighing 150-220 g were selected and divided into seven groups of six each. Doses in each group were calculated thus, only 5 mg/Kg body weight withanolide were administered to each animal. The test was conducted as per the protocol disclosed in U.S. Pat. No. 9,987,323B2.
Animals were treated as shown above for the 3 weeks. At the end of 1st, 2nd and 3rd week i.e., on 7th, 14th and 21st day 1 h after the treatment stress was induced by placing each animal individually in the hermetic vessel of 1 L capacity to record anoxia tolerance time. The time duration of entry of the animal into the hermetic vessel and the appearance of the first convulsion was taken as time of anoxia.

Swiss mice = experiment: Swimming endurance test; assay type: in vivo; details: 8th day after 7 days once daily p.o.
Protocol: Extracts were given to the mice, once daily for a period of 7 days. On 8th day the mice were subjected to swimming stress by keeping them in propylene tank of dimension (37×37×30 cm), filled with water to a height of 25 cm. The […] were allowed to swim till complete exhaustion and the endpoint was taken when the animal started drowning. The mean swimming time for each group was calculated.

Swiss albino mice = experiment: Pentobarbital induced sleep activity; assay type: in vivo; details: 1 mg/kg
Protocol: Swiss albino mice weighing 25-30 gm were used for the study.
Thirty minutes later, pentobarbital 40 mg/kg body weight was administered to each mouse to induce sleep. The onset time of sleep was recorded for all the animals. After induction of sleep, mice were placed in the inverted position and when sedation was over, the time point when the mice returned to their normal posture was noted. The time interval between dosing and the start of sleep was recorded as latency time.

GABA receptors = experiment: Expression of GABA receptors in rat glioblastoma (C6) cell line; assay type: cell-based; details: C6 cells, positive control 1 μg/mL
Wistar rats = experiment: Carrageenan induced paw edema model; assay type: in vivo, rat; details: single p.o. dose
Protocol: Anti-inflammatory activity of Withania somnifera extracts was assessed by carrageenan induced paw edema model in rats. Wistar rats were divided into seven groups (n=5). Following treatment was given to the rats as single dose; • Group 1: Control (Received only vehicle, 1% Tween 80 v/v p.o.) • Group II: Powdered Withania somnifera plant parts minimum 0.4% withanolides—Dosage 1750 mg/kg p.o. • Group III: Withania somnifera plant extract standardized minimum 2.5% withanolides (WG2.5)—Dosage 200 mg/kg p.o. • Group IV: Withania somnifera plant extract standardized minimum 5% withanolides (WG5)—Dosage 100 mg/kg p.o. • Group V: Withania somnifera plant extract standardized minimum 10% Withanolide Glycoside (WG10)—Dosage 50 mg/kg p.o. • Group VI: Sample 2 standardized with minimum 35±3% Withanolide Glycoside (WG 35)—Dosage 14 mg/kg p.o). • Group VII: Indomethacin (10 mg/kg p.o.).
After 30 minutes of extracts 0.1 mL of carrageenan (1% in normal saline) was injected into the right hind paw of each rat. The paw volume was measured plethysmographically at 0, 0.5, 1, 2, 3, 4 and 5th hour after challenge. The percentage inhibition of edema was calculated for each group with respect to the vehicle received control group of animals.

[1] = Bioavailability of Withaferin A and Withanoside IV in animals; assay type: in vivo; details: rat plasma, p.o.; standards 15 mg/kg, WG35 500 mg/kg
Protocol: Albino rats weighing 200-220 gm of both sexes were used for the study. The rats were kept individually in polypropylene cages and maintained in a well-ventilated room under normal and uniform conditions like 12 hours light and dark cycle and at 26±2° C. Water and feed were given ad-libitum. After the acclimatization period, the animals were fasted overnight before administration of test products.
Immediately after drug administration, 0.5 ml of blood was withdrawn at 0, 0.5, 1, 1.5, 2, 4, 6, 8 and 12 hours. Plasma samples were separated and Withaferin A and Withanoside IV were detected.

[2] = rats, administered orally; cited from earlier work

CN1C(=O)CN=C(c2ccccc2)c2cc(Cl)ccc21 [Diazepam]
Duration of anoxia stress tolerance (Albino Wistar rats; 1st week): 34.40 min
Duration of anoxia stress tolerance (Albino Wistar rats; 2nd week): 35.1 min
Duration of anoxia stress tolerance (Albino Wistar rats; 3rd week): 37.00 min
Swimming time (Swiss mice): 58.67 min
Duration of sleep (Swiss albino mice; pentobarbital 40 mg/kg): 99
Onset time of sleep (latency time) (Swiss albino mice; pentobarbital 40 mg/kg): 27 min
Percentage decrease in onset time of sleep (Swiss albino mice; vs control): 47%
Percentage increase in duration of sleep (Swiss albino mice; vs control): 74%

NCCCC(=O)O [GABA, Gamma aminobutyric acid]
Gene expression of GABA receptors, fold increase (cell control = 1.00) (GABA receptors): 1.00

COc1ccc2c(c1)c(CC(=O)O)c(C)n2C(=O)c1ccc(Cl)cc1 [Indomethacin]
Percentage inhibition of paw oedema (Wistar rats; 0.5 hr): 28%
Percentage inhibition of paw oedema (Wistar rats; 1 hr): 65%
Percentage inhibition of paw oedema (Wistar rats; 2 hr): 80%
Percentage inhibition of paw oedema (Wistar rats; 3 hr): 86%

CC1=C(CO)C(=O)O[C@@H]([C@@H](C)[C@H]2CC[C@H]3[C@@H]4C[C@H]5O[C@]56[C@@H](O)C=CC(=O)[C@]6(C)[C@H]4CC[C@]23C)C1 [Withaferin A]
Withaferin A AUC (0-12 h) [1]: 30.2 ng·h/mL
Withaferin A Cmax [1]: 28 ng/mL

CC1=C(C)C(=O)O[C@@H]([C@](C)(O)[C@H]2CC[C@H]3[C@@H]4[C@@H]5O[C@@H]5[C@@]5(O)CC=CC(=O)[C@]5(C)[C@H]4CC[C@]23C)C1 [Withanolide A]
Absolute bioavailability of withanolide A in plasma [2]: less than 5%

CC1=C(CO)C(=O)O[C@@H]([C@@H](C)[C@H]2CC[C@H]3[C@@H]4CC=C5C[C@@H](O[C@@H]6O[C@H](CO[C@@H]7O[C@H](CO)[C@@H](O)[C@H](O)[C@H]7O)[C@@H](O)[C@H](O)[C@H]6O)C[C@H](O)[C@]5(C)[C@H]4CC[C@]23C)C1 [Withanoside IV]
Withaferin A AUC (0-12 h) [1]: 18 ng·h/mL
Withaferin A Cmax [1]: 13.5 ng/mL
Withanoside IV AUC (0-12 h) [1]: 14 ng·h/mL
Withanoside IV Cmax [1]: 10.2 ng/mL
